Reference: US20040132811A1, “Methods and products for inhibiting growth of fungal pathogens on turfgrass” (priority 2003, published 2004)
Entries after “also recorded” stand apart in the source; their conditions may differ.

Tested on: anthracnose on bentgrass
Test: Evaluation of fungicides for control of anthracnose on bentgrass putting greens (field test)
Format: in vivo, Colletotrichum graminicola
Source text: The test was established on the 16th green at the Fianna Hills Country Club in Fort Smith, Ark. The green is more than 20 years old and was maintained at 0.156-inch mowing height and with other standard practices used at Fianna Hills. The design was a randomized complete block with 20 treatments and four replications. Individual plots were 4 feet×5 feet and isolated with a spray shield during applications. Treatments were applied on approximate 14- or 28-day schedules. Actual dates of applications were 31 May, 13 Jun., 27 Jun., 12 Jul., 26 Jul., and 9 Aug., all in 2002. Treatments were applied at 4 gal/1000 sq ft using a hand-held CO2-powered sprayer at 20 psi with a TeeJet 8004VS spray tip. The amount of active ingredient per 1000 square feet for each fungicide is provided in Table I. The C3 biocontrol is a strain of Lysobacter enzymogenes that was supplied by Dr. Gary Yuen from the University of Nebraska. The MX 567 active ingredient was first dissolved in acetone and then diluted with water. Treatments were evaluated by recording disease incidence, disease intensity, and turf quality.

[1] = 2 Aug, 2.5 g ai + .05% Tween per 1000 sq ft, days 0, 13, 27, 42, 56, 70
[2] = 19 Aug, 2.5 g ai + .05% Tween per 1000 sq ft, days 0, 13, 27, 42, 56, 70

C[C@H](COc1cc(F)ccc1F)NC(=O)C(C#N)C(C)(C)C (stereo in doubt) [MX 567, rel-2-cyano-N-[(1R)-2-(2,5-difluorophenoxy)-1-methylethyl]-3,3-dimethylbutanamide]
Incidence (%) of plot area with anthracnose symptoms [1]: 23%
Intensity (0 = no disease to 4 = dead) [1]: 1.0
Severity (incidence × intensity) [1]: 23
Incidence (%) of plot area with anthracnose symptoms (16 Jul, 2.5 g ai + .05% Tween per 1000 sq ft, days 0, 13, 27, 42, 56, 70): 21%
Incidence (%) of plot area with anthracnose symptoms [2]: 29%
Intensity (0 = no disease to 4 = dead) [2]: 1.0
Severity (incidence × intensity) [2]: 29
Turf quality (0-9 rating scale: 0 = all dead, 9 = excellent) [2]: 6.3
Incidence (%) of plot area with anthracnose symptoms (26 Jul, 2.5 g ai + .05% Tween per 1000 sq ft, days 0, 13, 27, 42, 56, 70): 2%
turf quality, in words (summary of Table I): increases in turf quality; also recorded: highest turf quality
disease severity, in words (summary of Table I versus nontreated checks): significant reductions in disease severity
